Measurements published in US20080234297A1, “HSP90 Inhibitors Containing a Zinc Binding Moiety” (priority 2007, published 2008).

Columns and labels:
[1] = system: HDAC (HeLa nuclear extract); assay: HDAC fluorimetric assay kit (AK-500, Biomol), inhibition of HDAC enzymatic activity; format: biochemical; settings: Fluor de Lys substrate, graded IC50
Method: (b) An In Vitro Assay which Determines the Ability of a Test Compound to Inhibit HDAC Enzymatic Activity.
HDAC inhibitors were screened using an HDAC fluorimetric assay kit (AK-500, Biomol, Plymouth Meeting, Pa.). Test compounds were dissolved in dimethylsulphoxide (DMSO) to give a 20 mM working stock concentration. Fluorescence was measured on a WALLAC Victor 2 plate reader and reported as relative fluorescence units (RFU). Data were plotted using GraphPad Prism (v4.0a) and IC50's calculated using a sigmoidal dose response curve fitting algorithm. Each assay was setup as follows: Defrosted all kit components and kept on ice until use. Diluted HeLa nuclear extract 1:29 in Assay Buffer (50 mM Tris/Cl, pH 8.0, 137 mM NaCl, 2.7 mM KCl, 1 mM MgCl2). Prepared dilutions of Trichostatin A (TSA, positive control) and tested compounds in assay buffer (5× of final concentration). Diluted Fluor de Lys™ Substrate in assay buffer to 100 uM (50 fold=2× final). Diluted Fluor de Lys™ developer concentrate 20-fold (e.g. 50 μl plus 950 μl Assay Buffer) in cold assay buffer. Second, diluted the 0.2 mM Trichostatin A 100-fold in the 1× Developer (e.g. 10 μl in 1 ml; final Trichostatin A concentration in the 1× Developer=2 μM; final concentration after addition to HDAC/Substrate reaction=1 μM). Added Assay buffer, diluted trichostatin A or test inhibitor to appropriate wells of the microtiter plate. Added diluted HeLa extract or other HDAC sample to all wells except for negative controls. Allowed diluted Fluor de Lys™ Substrate and the samples in the microtiter plate to equilibrate to assay temperature (e.g. 25 or 37° C. Initiated HDAC reactions by adding diluted substrate (25 μl) to each well and mixing thoroughly. Allowed HDAC reactions to proceed for 1 hour and then stopped them by addition of Fluor de Lys™ Developer ([…]). Incubated plate at room temperature (25° C.) for 10-15 min. Read samples in a microtiter-plate reading fluorimeter capable of excitation at a wavelength in the range 350-380 nm and detection of emitted light in the range 440-460 nm.
(§1) The following TABLE B lists compounds representative of the invention and their activity in HDAC and HSP90 assays. In these assays, the following grading was used: I≧10 μM, 10 μM>II>1 μM, 1 μM>III>0.1 μM, and IV≦0.1 μM for IC50.

HSP90 = assay: Hsp90 chaperone assay (refolding of heat-denatured luciferase); format: biochemical; settings: luminescence readout, graded IC50
Method: (a) An In Vitro Assay which Determines the Ability of a Test Compound to Inhibit Hsp90 Chaperone Activity.
The Hsp90 chaperone assay was performed to measure the ability of HSP90 protein to refold the heat-denatured luciferase protein. HSP90 was first incubated with different concentrations of test compounds in denaturation buffer (25 mM Tris, pH7.5, 8 mM MgSO4, 0.01% bovine gamma globulin and 10% glycerol) at room temperature for 30 min. Luciferase protein was added to denaturation mix and incubated at 50° C. for 8 min. The final concentration of HSP90 and luciferase in denaturation mixture were 0.375 μM and 0.125 μM respectively. A 5 μl sample of the denatured mix was diluted into 25 μl of renaturation buffer (25 mM Tris, pH7.5, 8 mM MgSO4, 0.01% bovine gamma globulin and 10% glycerol, 0.5 mM ATP, 2 mM DTT, 5 mM KCl, 0.3 μM HSP70 and 0.15 μM HSP40). The renaturation reaction was incubated at room temperature for 150 min, followed by dilution of 10 μl of the renatured sample into 90 μl of luciferin reagent (Luclite, PerkinElmer Life Science). The mixture was incubated at dark for 5 min before reading the luminescence signal on a TopCount plate reader (PerkinElmer Life Science).
as §1

IC50 [1] | IC50 (HSP90) | melting point | SMILES
≤ 0.1 µM |  |  | Nc1ncnc2c1nc(Sc1cc3c(cc1Br)OCO3)n2CCNCCCCCCCC(=O)NO [Compound 41, 8-(2-(6-amino-8-(6-bromobenzo[d][1,3]dioxol-5-ylthio)-9H-purin-9-yl)ethylamino)-N-hydroxyoctanamide]
0.1 to 1 µM | 0.1 to 1 µM |  | Nc1ncnc2c1nc(Sc1cc3c(cc1Br)OCO3)n2CCCCCC(=O)NO [Compound 5, 6-(6-amino-8-(6-bromobenzo[d][1,3]dioxol-5-ylthio)-9H-purin-9-yl)-N-hydroxyhexanamide]
≤ 0.1 µM | ≤ 0.1 µM |  | Nc1ncnc2c1nc(Sc1cc3c(cc1I)OCO3)n2CCCCCCC(=O)NO [Compound 32, 7-(6-amino-8-(6-iodobenzo[d][1,3]dioxol-5-ylthio)-9H-purin-9-yl)-N-hydroxyheptanamide]
≤ 0.1 µM | 0.1 to 1 µM |  | Nc1ncnc2c1nc(Sc1cc3c(cc1Br)OCO3)n2CCNCCCCCCC(=O)NO [Compound 24, 7-(2-(6-amino-8-(6-bromobenzo[d][1,3]dioxol-5-ylthio)-9H-purin-9-yl)ethylamino)-N-hydroxyheptanamide]
0.1 to 1 µM | 0.1 to 1 µM |  | Nc1ncnc2c1nc(Sc1cc3c(cc1I)OCO3)n2CCNCCCCCC(=O)NO [Compound 38, 6-(2-(6-amino-8-(6-iodobenzo[d][1,3]dioxol-5-ylthio)-9H-purin-9-yl)ethylamino)-N-hydroxyhexanamide]
≤ 0.1 µM | 1 to 10 µM |  | Nc1nccc2c1nc(Sc1cc3c(cc1Br)OCO3)n2CCCCCCC(=O)NO [Compound 35, 7-(4-amino-2-(6-bromobenzo[d][1,3]dioxol-5-ylthio)-1H-imidazo[4,5-c]pyridin-1-yl)-N-hydroxyheptanamide]
≤ 0.1 µM | 0.1 to 1 µM |  | Nc1ncnc2c1nc(Sc1cc3c(cc1Br)OCO3)n2CCCCCCC(=O)NO [Compound 6, 7-(6-amino-8-(6-bromobenzo[d][1,3]dioxol-5-ylthio)-9H-purin-9-yl)-N-hydroxyheptanamide]
≤ 0.1 µM | ≥ 10 µM |  | Nc1ncnc2c1nc(Sc1cc3c(cc1Br)OCO3)n2CCOCCCCCCC(=O)NO [Compound 30, 7-(2-(6-amino-8-(6-bromobenzo[d][1,3]dioxol-5-ylthio)-9H-purin-9-yl)ethoxy)-N-hydroxyheptanamide]
≥ 10 µM | ≥ 10 µM |  | Nc1ncnc2c1nc(Sc1cc3c(cc1Br)OCO3)n2CCOCCCC(=O)NO [Compound 27, 4-(2-(6-amino-8-(6-bromobenzo[d][1,3]dioxol-5-ylthio)-9H-purin-9-yl)ethoxy)-N-hydroxybutanamide]
≤ 0.1 µM | ≥ 10 µM |  | C#CCCCn1c(Sc2cccc(OCCCC(=O)NO)c2)nc2c(N)ncnc21 [Compound 16, 4-(3-(6-amino-9-(pent-4-ynyl)-9H-purin-8-ylthio)phenoxy)-N-hydroxybutanamide]
≥ 10 µM | ≥ 10 µM |  | Nc1ncnc2c1nc(Sc1cc3c(cc1Br)OCO3)n2CCOCC(=O)NO [Compound 40]
≤ 0.1 µM | 0.1 to 1 µM |  | Nc1ncnc2c1nc(Sc1cc3c(cc1Br)OCO3)n2CCNCCCCCC(=O)NO [Compound 23, 6-(2-(6-amino-8-(6-bromobenzo[d][1,3]dioxol-5-ylthio)-9H-purin-9-yl)ethylamino)-N-hydroxyhexanamide]
1 to 10 µM | ≥ 10 µM |  | Nc1ncnc2c1nc(Sc1cc3c(cc1Br)OCO3)n2CCOCCCCCC(=O)NO [Compound 29, 6-(2-(6-amino-8-(6-bromobenzo[d][1,3]dioxol-5-ylthio)-9H-purin-9-yl)ethoxy)-N-hydroxyhexanamide]
≤ 0.1 µM | 0.1 to 1 µM |  | Nc1ncnc2c1nc(Sc1cc3c(cc1I)OCO3)n2CCNCCCCCCC(=O)NO [Compound 39, 7-(2-(6-amino-8-(6-iodobenzo[d][1,3]dioxol-5-ylthio)-9H-purin-9-yl)ethylamino)-N-hydroxyheptanamide]
0.1 to 1 µM |  |  | C#CCCCn1c(Sc2cccc(OCC(=O)NO)c2)nc2c(N)ncnc21 [Compound 14, 2-(3-(6-amino-9-(pent-4-ynyl)-9H-purin-8-ylthio)phenoxy)-N-hydroxyacetamide]
 |  | 230 °C (dec.) | Nc1ncnc2c1nc(Sc1cc3c(cc1Br)OCO3)n2CC(=O)NO [Compound 1, 2-(6-amino-8-(6-bromobenzo[d][1,3]dioxol-5-ylthio)-9H-purin-9-yl)-N-hydroxyacetamide]
1 to 10 µM | ≥ 10 µM |  | Nc1ncnc2c1nc(Sc1cc3c(cc1Br)OCO3)n2CCOCCCCC(=O)NO [Compound 28, 5-(2-(6-amino-8-(6-bromobenzo[d][1,3]dioxol-5-ylthio)-9H-purin-9-yl)ethoxy)-N-hydroxypentanamide]
≤ 0.1 µM | 0.1 to 1 µM |  | Nc1nccc2c1nc(Sc1cc3c(cc1I)OCO3)n2CCCCCCC(=O)NO [Compound 36, 7-(4-amino-2-(6-iodobenzo[d][1,3]dioxol-5-ylthio)-1H-imidazo[4,5-c]pyridin-1-yl)-N-hydroxyheptanamide]
≤ 0.1 µM | ≥ 10 µM |  | C#CCCCn1c(Sc2cccc(OCCCCCC(=O)NO)c2)nc2c(N)ncnc21 [Compound 18, 6-(3-(6-amino-9-(pent-4-ynyl)-9H-purin-8-ylthio)phenoxy)-N-hydroxyhexanamide]
≤ 0.1 µM | 1 to 10 µM |  | Nc1ncnc2c1nc(Sc1cc3c(cc1Cl)OCO3)n2CCCCCCC(=O)NO [Compound 31, 7-(6-amino-8-(6-chlorobenzo[d][1,3]dioxol-5-ylthio)-9H-purin-9-yl)-N-hydroxyheptanamide]
≥ 10 µM | ≥ 10 µM |  | C#CCCCn1c(Sc2cccc(C(=O)NO)c2)nc2c(N)ncnc21 [Compound 13]
≤ 0.1 µM | 1 to 10 µM |  | Nc1nccc2c1nc(Sc1cc3c(cc1Cl)OCO3)n2CCCCCCC(=O)NO [Compound 34, 7-(4-amino-2-(6-chlorobenzo[d][1,3]dioxol-5-ylthio)-1H-imidazo[4,5-c]pyridin-1-yl)-N-hydroxyheptanamide]
≤ 0.1 µM |  |  | COc1ccc(I)c(Sc2nc3c(N)ncnc3n2CCCCCCC(=O)NO)c1 [Compound 12, 7-(6-amino-8-(2-iodo-5-methoxyphenylthio)-9H-purin-9-yl)-N-hydroxyheptanamide]

SMILES | IC50 [1] | IC50 (HSP90) | melting point
Nc1ncnc2c1nc(Sc1cc3c(cc1Br)OCO3)n2CCNCC(=O)NO [Compound 33] | ≥ 10 µM | 0.1 to 1 µM | 
Nc1ncnc2c1nc(Sc1cc3c(cc1I)OCO3)n2CCNCC(=O)NO [Compound 37] | ≥ 10 µM | 0.1 to 1 µM | 
Nc1ncnc2c1nc(Sc1cc3c(cc1Br)OCO3)n2CCNCCC(=O)NO [Compound 20, 3-(2-(6-amino-8-(6-bromobenzo[d][1,3]dioxol-5-ylthio)-9H-purin-9-yl)ethylamino)-N-hydroxypropanamide] | ≥ 10 µM | 0.1 to 1 µM | 
